From patent publication US10092028B2, “Compositions comprising cinnamaldehyde and zinc and methods of using such compositions” (NESTEC S.A., priority 2014, dated 2018)

Columns and labels:
[1] = comparative taste testing in human subjects; type: in vivo; details: 4.8 ppm capsaicin or 350 ppm cinnamaldehyde, FIG. 9
Procedure: Human subjects were administered a composition comprising 4.8 ppm capsaicin or 350 ppm cinnamaldehyde. […] 87.9% of the participants judged capsaicin intense to very intense, compared to only 20.5% for cinnamaldehyde. To achieve a similar effect on fat oxidation of capsaicin and cinnamaldehyde, the dose of capsaicin is about 1.5 times less than the maximum that can be used as a flavor (7 ppm according to Fenaroli's Handbook; Burdock, 2010), and the dose of cinnamaldehyde is about 17.5 times less than the maximum that can be used as a flavor (6191.0 ppm according to Fenaroli's Handbook; Burdock, 2010).

[2] = in vivo; cited from earlier work
[3] = nose temperature after ingestion in human subjects; type: in vivo; details: fifteen minutes following ingestion, FIG. 7
Procedure: (§1) The nose temperature of the subjects was analyzed over the fifteen minutes following ingestion of the various compounds. […] The increased sympathetic activity identified by measuring the facial temperature (increased blood flow on the chin) might explain the increased energy expenditure measured by indirect calorimetry.

TRPA1 = TRPA1 (Homo sapiens, UniProt O75762); details: read-out: EC50 for activation of TRPA1; cited from earlier work
[4] = postprandial fat oxidation after ingestion in human subjects; type: in vivo
Procedure: The postprandial fat oxidation was measured over the 90 minutes following ingestion of the various compounds.

TRPV1 = TRPV1 (Homo sapiens, UniProt Q8NER1); details: cited from earlier work
[5] = insulin sensitivity in mice with chronic ingestion, high fat diet; type: in vivo; details: mice chronically fed high fat diet containing 0.2 wt % cinnamaldehyde, FIG. 11
Excerpt: The composition can thereby reduce glycemia.

[6] = energy expenditure after ingestion in human subjects; type: in vivo
Procedure: Human subjects were administered placebo, a cooling flavor, capsaicin, or cinnamaldehyde. The energy expenditure was measured over the eighty minutes following ingestion. […] The increased sympathetic activity identified by measuring the facial temperature (increased blood flow on the chin) might explain the increased energy expenditure measured by indirect calorimetry.

[7] = chin temperature after ingestion in human subjects (sympathetic activity); type: in vivo
Procedure: as §1, with “chin” for “nose”, “measured” for “analyzed”, “eighty” for “fifteen”

[8] = target: T1, hTRPA1 expressed in CHO cells (Homo sapiens, UniProt O75762); test: in vitro activity of hTRPA1 expressed in CHO cells, intracellular calcium with a fluorescent dye; type: cell-based; details: cinnamaldehyde at 50 mM (C+), according to a dose-response curve
T1 construct: expressed in transfected cells; host or cells: CHO cells

[9] = at a flavoring level judged significantly less intense than capsaicin

Sequence of TRPV1 (Q8NER1 whole entry, species assumed): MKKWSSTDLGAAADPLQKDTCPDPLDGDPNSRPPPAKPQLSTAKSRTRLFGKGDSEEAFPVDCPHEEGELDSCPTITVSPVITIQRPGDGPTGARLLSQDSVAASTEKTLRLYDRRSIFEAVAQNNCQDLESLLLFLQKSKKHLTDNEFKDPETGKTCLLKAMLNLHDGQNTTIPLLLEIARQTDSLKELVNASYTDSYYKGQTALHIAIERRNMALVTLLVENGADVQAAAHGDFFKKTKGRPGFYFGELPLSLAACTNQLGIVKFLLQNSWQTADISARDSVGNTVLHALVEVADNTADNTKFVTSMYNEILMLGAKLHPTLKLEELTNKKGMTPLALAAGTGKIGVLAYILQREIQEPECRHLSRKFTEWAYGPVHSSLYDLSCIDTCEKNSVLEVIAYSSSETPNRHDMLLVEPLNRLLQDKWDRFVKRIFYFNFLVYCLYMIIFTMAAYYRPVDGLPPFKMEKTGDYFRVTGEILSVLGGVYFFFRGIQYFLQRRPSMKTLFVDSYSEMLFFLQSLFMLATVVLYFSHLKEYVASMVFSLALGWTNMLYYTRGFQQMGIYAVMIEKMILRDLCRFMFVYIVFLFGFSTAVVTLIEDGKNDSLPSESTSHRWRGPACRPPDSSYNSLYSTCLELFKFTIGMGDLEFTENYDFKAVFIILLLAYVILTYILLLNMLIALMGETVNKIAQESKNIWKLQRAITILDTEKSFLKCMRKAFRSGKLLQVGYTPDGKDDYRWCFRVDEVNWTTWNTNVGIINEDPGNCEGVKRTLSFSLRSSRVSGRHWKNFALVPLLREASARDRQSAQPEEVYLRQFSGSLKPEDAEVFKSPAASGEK
T1 sequence (O75762 whole entry): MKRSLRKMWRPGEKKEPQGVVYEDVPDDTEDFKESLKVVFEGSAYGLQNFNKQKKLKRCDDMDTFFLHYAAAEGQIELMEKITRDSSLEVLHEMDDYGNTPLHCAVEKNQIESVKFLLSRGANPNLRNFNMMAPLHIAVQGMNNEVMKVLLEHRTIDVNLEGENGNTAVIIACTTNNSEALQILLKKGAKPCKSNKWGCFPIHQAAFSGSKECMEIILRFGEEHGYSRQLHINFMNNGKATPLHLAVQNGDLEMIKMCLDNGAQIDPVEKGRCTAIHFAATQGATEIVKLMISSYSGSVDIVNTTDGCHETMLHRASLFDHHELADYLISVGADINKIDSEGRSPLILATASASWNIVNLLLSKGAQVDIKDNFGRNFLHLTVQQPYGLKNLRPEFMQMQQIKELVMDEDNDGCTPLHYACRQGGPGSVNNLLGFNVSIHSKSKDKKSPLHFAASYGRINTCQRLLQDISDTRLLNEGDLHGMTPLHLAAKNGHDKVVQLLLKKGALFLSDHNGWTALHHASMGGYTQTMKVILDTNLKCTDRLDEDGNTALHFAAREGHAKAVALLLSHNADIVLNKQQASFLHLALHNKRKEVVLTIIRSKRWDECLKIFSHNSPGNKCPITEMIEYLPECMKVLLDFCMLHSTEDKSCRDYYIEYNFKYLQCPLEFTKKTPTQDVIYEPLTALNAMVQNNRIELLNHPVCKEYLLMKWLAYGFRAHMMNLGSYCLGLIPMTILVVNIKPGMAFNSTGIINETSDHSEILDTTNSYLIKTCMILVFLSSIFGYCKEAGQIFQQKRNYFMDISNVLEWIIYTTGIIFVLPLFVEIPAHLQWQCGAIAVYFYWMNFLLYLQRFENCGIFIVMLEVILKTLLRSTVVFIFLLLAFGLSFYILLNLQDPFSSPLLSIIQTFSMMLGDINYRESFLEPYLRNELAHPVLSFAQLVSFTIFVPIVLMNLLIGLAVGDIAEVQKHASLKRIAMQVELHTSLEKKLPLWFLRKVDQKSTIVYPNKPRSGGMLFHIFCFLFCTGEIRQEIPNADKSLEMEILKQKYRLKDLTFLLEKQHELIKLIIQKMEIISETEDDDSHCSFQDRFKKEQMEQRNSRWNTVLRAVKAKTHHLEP
Sequence of TRPA1 (O75762 whole entry): as above

SMILES | participants who judged the taste intense to very intense [1] | efficient dose for increasing energy expenditure and fat oxidation [2] | nose temperature [3] | EC50 (TRPA1) | postprandial fat oxidation compared to placebo ([4]; 90 minutes following ingestion, time course and AUC, FIGS. 5 and 6) | effect on fat oxidation compared to capsaicin [4, 9] | activation of TRPV1 (TRPV1) | insulin sensitivity relative to same high fat diet without cinnamaldehyde [5] | impact on energy expenditure compared to capsaicin [6, 9] | energy expenditure compared to placebo ([6]; eighty minutes following ingestion, time course and AUC, FIGS. 3 and 4) | impact on sympathetic nervous system activity compared to capsaicin [7, 9] | chin temperature relative to baseline ([7]; eighty minutes following ingestion, FIG. 8) | activity of hTRPA1, positive control efficacy [8]
COc1cc(CNC(=O)CCCC/C=C/C(C)C)ccc1O [capsaicin] | 87.9% | ≥ 20 mg | increase nose temperatures | – | – | – | – | – | – | – | – | – | –
O=CC=Cc1ccccc1 [cinnamaldehyde] | – | – | increase nose temperatures | ~10 µM | maintained at higher levels | equivalent effect | but not TRPV1 or TRPM8 | improved insulin sensitivity | significantly higher impact | increased | significantly higher impact | increases chin temperature for a prolonged time | maximum efficacy
